SMILES strings stand for the structures.

Holding throughout (assay): Protein kinase assay
Experiment [1] concerns the target CLK3 (Mus musculus, UniProt O35492). The settings on record: read-out: IC50 CLK3; 15 μmol/L ATP.
Experiment [2] addresses GSK-3α/β. The experiment is classed as biochemical, porcine. The settings on record: 15 μmol/L ATP.
Experiment [3] deals with LmCK1 (Leishmania major, UniProt Q9NHE1). The experiment is classed as biochemical. The settings on record: 15 μmol/L ATP; read-out: IC50 LmCK1. The procedure:
(§1) CK1δ/ε (porcine brain, native) and LmCK1 (leishmania major, recombinant, expressed in E. coli as HIS fusion proteins) was assayed as described for CDK1 but in buffer C and using 25 μM CKS peptide ([…]pSAYSITA), a CK1-specific substrate.

For experiment [4], the target named is CLK4 (Mus musculus, UniProt O35493). The settings on record: read-out: IC50 CLK4; 15 μmol/L ATP.
Experiment [5] addresses CDK1/cyclin B. The format is biochemical, starfish. The settings on record: 15 μmol/L ATP.
Experiment [6] has as its target DYRK1B (Homo sapiens, UniProt Q9Y463). The experiment is classed as biochemical. The settings on record: 15 μmol/L ATP.
For experiment [7], the target named is CLK1 (Mus musculus, UniProt P22518). The settings on record: read-out: IC50 CLK1; 15 μmol/L ATP.
For experiment [8], the target named is CK1δ/ε. The experiment is classed as biochemical, porcine. The settings on record: 15 μmol/L ATP. The procedure: as §1
In experiment [9] the target is T1, DYRK2 (Homo sapiens, UniProt Q92630).
T1 sequence (Q92630 1-601): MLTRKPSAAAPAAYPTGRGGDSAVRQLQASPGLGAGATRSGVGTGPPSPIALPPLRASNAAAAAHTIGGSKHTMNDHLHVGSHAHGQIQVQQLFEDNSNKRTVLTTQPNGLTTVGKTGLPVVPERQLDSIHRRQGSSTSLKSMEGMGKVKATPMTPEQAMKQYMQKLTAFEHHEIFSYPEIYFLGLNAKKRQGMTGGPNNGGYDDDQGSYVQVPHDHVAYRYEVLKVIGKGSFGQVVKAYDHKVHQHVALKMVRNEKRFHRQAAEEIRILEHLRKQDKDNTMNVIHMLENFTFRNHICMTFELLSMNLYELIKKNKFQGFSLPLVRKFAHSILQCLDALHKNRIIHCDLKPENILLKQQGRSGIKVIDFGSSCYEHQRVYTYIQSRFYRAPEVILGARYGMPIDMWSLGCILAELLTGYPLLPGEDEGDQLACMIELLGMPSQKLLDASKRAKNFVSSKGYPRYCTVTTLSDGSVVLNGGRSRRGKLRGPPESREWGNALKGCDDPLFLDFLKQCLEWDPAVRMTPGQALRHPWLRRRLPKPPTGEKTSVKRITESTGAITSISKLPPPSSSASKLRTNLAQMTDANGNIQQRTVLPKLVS
The experiment is classed as biochemical. The settings on record: 15 μmol/L ATP; read-out: IC50 DYRK2.

In experiment [10] the target is T2, DYRK3 (Homo sapiens, UniProt O43781).
T2 sequence (O43781 1-588): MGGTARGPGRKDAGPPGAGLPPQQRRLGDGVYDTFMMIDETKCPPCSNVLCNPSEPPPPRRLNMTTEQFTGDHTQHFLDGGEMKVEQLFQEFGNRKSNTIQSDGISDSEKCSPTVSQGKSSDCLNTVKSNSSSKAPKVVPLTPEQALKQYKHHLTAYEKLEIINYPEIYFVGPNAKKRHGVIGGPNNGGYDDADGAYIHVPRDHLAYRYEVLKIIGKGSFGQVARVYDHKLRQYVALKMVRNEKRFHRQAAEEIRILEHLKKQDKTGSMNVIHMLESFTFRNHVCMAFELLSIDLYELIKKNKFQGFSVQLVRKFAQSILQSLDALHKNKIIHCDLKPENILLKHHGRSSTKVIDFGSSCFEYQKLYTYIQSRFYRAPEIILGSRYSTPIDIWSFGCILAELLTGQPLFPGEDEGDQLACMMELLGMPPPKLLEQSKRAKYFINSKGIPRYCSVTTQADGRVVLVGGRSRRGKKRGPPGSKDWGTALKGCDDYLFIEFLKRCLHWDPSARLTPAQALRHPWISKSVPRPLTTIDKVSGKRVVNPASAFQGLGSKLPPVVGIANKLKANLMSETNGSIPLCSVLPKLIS
The format is biochemical. The settings on record: 15 μmol/L ATP; read-out: IC50 DYRK3.

The target of experiment [11] is CLK2 (Mus musculus, UniProt O35491). The settings on record: read-out: IC50 CLK2; 15 μmol/L ATP.
Experiment [12] deals with T3, CDK5/p25 (Homo sapiens, UniProt Q00535).
T3 construct: made in house
The format is biochemical. The settings on record: 15 μmol/L ATP; read-out: IC50 CDK5/p25.

Experiment [13] has as its target T4, PfGSK-3 (Plasmodium falciparum, UniProt O77344).
T4 sequence (O77344 1-440): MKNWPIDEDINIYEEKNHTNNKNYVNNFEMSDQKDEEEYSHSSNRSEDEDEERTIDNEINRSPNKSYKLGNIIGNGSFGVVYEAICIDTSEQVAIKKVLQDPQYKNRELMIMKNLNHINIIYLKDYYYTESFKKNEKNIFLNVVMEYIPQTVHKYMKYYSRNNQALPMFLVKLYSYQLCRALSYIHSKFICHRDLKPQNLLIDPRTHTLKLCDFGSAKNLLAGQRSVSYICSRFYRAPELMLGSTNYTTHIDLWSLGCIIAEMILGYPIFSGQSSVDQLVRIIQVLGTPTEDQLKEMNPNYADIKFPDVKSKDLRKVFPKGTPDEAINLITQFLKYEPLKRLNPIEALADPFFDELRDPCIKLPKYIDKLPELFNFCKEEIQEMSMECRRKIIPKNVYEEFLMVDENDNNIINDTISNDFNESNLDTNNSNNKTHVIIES
The format is biochemical. The settings on record: 15 μmol/L ATP; read-out: IC50 PfGSK-3. As to the method: The parasitic kinase genes (Supplementary Data, Table S3) were optimized for expression in E. coli, synthesized, and cloned in pGEX-6P-1 (GE Healthcare, Sigma-Aldrich, St. Quentin Fallavier, France) with the type II restriction enzymes BamHI and XhoI for glutathione S-transferase (GST) fusion at the N-terminus (GenScript). Plasmids were transformed into chemically competent E. coli BL21(DE3), which were grown overnight at 37 °C in 2 × YT medium containing 100 μg/mL ampicillin. These cultures were used to inoculate 1 L volumes of 2 × YT medium (containing 100 μg/mL ampicillin) in 5 L flasks. The cultures were allowed to grow at 37 °C before the temperature was decreased to 18 °C. At an optical density at 600 nm (OD600) of about 1.0, protein expression was induced overnight at 18 °C with 0.1 mM isopropyl β-D-1-thiogalactopyranoside (IPTG). The bacteria were harvested by centrifugation and were frozen at −20 °C.
Cells were resuspended in a lysis buffer (PBS pH 7.4, 1% NP40, 1 mM DTT, 1 mM EDTA, 1 mM PMSF) in the presence of protease inhibitor cocktail (Roche), and lysozyme was added to 1 mg/mL and incubated 1 h at 4 °C with gentle agitation. Cells were then sonicated on ice before 6 mM MgCl2 and 25 U/mL benzonase (Novagen, Merck Millipore, Fontenay sous Bois, France) were added to degrade nucleic acids and decrease sample viscosity. After centrifugation at 4 °C, the soluble fraction was collected and proteins were bound to Glutathione sepharose 4B beads (GE Healthcare). Beads were washed three times with lysis buffer and once with modified buffer C (25 mM MOPS pH 7.0, 60 mM β-glycerophosphate, 15 mM p-nitrophenylphosphate, 15 mM EGTA, 15 mM MgCl2, 2 mM DTT, 1 mM sodium vanadate). Proteins were eluted with elution buffer (buffer C containing 30 mM reduced glutathione, 15% glycerol, and pH adjusted to 8.5).

Experiment [14] concerns the target CDK9/cyclin T (Homo sapiens, UniProt P50750). The settings on record: read-out: IC50 CDK9/cyclin T; 15 μmol/L ATP.
In experiment [15] the target is DYRK1A (Homo sapiens, UniProt Q13627). The experiment is classed as biochemical. The settings on record: 15 μmol/L ATP.
Experiment [16] has as its target T5, CDK2/cyclin A (Homo sapiens, UniProt P24941).
T5 construct: made in house
The experiment is classed as biochemical. The settings on record: 15 μmol/L ATP; read-out: IC50 CDK2/cyclin A.

T3 sequence (Q00535 whole entry): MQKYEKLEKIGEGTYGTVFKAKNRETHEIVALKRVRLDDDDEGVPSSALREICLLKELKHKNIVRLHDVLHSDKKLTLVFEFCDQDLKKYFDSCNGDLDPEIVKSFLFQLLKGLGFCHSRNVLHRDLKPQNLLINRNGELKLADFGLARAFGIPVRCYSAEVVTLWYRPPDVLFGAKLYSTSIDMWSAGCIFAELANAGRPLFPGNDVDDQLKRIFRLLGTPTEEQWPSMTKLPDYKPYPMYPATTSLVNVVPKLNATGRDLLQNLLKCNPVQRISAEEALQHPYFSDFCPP
T3 sequence (Q15078 99-307 partner limits assumed): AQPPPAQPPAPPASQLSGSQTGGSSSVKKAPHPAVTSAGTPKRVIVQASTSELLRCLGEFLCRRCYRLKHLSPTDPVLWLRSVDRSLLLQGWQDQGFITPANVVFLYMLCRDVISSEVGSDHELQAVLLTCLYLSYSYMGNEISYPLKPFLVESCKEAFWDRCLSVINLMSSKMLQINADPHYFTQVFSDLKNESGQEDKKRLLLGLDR
Chain of CLK3 (O35492 whole entry): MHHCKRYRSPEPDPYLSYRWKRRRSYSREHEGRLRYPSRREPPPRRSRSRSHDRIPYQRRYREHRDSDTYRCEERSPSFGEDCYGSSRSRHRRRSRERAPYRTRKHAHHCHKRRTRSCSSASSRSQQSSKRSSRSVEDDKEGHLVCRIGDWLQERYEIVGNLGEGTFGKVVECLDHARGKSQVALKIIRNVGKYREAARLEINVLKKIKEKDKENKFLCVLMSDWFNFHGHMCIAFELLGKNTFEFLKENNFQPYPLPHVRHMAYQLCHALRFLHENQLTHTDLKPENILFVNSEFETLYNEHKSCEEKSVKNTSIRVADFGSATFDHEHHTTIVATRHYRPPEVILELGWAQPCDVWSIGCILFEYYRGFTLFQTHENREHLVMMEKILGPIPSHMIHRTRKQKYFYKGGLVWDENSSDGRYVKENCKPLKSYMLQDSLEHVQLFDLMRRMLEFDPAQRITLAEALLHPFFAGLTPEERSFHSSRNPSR
Chain of CDK9/cyclin T (P50750 whole entry): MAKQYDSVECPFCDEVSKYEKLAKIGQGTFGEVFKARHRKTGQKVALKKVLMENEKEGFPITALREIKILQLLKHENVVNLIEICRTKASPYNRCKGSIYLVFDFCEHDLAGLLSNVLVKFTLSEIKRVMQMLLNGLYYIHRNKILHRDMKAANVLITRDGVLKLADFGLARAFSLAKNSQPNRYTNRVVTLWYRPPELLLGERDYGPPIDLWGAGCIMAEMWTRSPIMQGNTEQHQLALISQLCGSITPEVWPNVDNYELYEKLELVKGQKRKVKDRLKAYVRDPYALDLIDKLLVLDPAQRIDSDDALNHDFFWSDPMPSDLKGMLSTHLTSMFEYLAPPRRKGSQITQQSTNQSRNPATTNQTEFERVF
Chain of CDK9/cyclin T (O60563 whole entry partner): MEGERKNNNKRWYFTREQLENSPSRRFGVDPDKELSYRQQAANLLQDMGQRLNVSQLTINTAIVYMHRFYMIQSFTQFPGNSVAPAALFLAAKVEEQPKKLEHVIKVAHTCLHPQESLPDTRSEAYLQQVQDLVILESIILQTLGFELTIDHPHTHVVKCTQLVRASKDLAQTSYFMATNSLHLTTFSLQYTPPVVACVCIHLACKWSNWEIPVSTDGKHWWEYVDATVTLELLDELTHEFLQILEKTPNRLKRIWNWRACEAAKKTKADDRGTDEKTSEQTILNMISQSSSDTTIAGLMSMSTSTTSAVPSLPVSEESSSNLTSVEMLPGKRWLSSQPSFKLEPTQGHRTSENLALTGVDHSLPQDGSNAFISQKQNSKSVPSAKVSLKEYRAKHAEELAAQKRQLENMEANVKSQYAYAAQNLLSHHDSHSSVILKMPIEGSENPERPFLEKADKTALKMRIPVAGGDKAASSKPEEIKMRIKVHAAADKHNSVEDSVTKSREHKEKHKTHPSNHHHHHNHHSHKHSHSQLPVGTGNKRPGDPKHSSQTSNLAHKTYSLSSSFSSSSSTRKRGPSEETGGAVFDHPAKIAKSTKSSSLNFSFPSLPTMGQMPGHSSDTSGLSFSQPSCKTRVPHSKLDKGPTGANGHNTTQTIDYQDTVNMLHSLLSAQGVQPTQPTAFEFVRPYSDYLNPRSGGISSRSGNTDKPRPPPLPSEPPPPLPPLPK
Chain of CLK1 (P22518 whole entry): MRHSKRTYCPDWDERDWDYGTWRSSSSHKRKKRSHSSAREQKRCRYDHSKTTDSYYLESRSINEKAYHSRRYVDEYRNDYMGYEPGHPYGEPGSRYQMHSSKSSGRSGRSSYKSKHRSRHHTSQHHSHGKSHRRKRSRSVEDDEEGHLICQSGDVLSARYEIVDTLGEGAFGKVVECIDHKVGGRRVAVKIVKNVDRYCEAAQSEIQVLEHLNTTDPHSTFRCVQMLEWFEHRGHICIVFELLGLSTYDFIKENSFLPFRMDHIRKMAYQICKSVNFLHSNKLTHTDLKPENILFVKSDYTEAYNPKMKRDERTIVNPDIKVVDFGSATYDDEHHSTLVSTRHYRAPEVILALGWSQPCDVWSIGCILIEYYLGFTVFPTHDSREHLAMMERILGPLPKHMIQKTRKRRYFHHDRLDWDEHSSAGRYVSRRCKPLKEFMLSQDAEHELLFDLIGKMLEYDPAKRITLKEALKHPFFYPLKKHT
Chain of DYRK1B (Q9Y463 whole entry): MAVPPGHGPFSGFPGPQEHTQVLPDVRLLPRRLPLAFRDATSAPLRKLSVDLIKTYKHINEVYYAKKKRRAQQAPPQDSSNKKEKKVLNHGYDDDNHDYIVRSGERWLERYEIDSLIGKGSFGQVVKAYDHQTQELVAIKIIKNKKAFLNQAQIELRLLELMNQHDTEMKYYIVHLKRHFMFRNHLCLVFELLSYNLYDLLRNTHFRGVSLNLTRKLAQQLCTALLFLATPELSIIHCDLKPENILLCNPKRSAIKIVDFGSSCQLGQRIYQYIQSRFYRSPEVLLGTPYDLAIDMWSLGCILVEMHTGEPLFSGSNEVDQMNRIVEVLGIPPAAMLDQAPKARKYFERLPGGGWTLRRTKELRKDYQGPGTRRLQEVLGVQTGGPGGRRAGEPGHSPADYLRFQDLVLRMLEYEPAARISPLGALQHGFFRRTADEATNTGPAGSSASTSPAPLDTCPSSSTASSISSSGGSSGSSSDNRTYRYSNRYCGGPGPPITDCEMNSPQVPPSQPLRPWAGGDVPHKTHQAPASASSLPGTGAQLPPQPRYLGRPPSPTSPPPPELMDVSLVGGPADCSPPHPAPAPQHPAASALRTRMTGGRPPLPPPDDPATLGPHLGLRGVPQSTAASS
Chain of CLK4 (O35493 whole entry): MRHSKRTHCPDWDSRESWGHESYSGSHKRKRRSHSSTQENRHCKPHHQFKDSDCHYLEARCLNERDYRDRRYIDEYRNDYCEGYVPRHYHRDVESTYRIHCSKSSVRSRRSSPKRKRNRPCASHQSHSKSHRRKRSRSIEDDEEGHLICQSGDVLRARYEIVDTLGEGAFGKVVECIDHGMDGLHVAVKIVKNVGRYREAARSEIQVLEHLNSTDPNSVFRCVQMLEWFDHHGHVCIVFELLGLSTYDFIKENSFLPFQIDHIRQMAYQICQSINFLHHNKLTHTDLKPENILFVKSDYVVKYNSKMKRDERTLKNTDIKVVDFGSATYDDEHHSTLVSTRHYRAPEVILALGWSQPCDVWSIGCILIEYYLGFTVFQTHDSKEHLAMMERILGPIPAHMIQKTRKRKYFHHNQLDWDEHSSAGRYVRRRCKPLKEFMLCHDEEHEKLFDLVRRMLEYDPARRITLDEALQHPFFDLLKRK
Chain of CLK2 (O35491 whole entry): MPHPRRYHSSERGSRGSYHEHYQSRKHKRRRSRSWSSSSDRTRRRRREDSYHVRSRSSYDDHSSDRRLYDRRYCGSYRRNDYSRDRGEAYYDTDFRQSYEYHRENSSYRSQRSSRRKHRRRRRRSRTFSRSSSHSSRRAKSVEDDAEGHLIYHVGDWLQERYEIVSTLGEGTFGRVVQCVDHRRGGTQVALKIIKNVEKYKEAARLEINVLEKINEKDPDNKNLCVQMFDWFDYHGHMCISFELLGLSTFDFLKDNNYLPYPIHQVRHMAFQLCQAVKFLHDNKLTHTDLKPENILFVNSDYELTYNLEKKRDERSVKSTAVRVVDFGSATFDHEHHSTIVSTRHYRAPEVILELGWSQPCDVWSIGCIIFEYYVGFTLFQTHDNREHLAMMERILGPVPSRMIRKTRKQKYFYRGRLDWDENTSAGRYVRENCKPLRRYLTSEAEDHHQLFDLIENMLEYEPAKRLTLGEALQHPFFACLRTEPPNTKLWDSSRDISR
Chain of LmCK1 (Q9NHE1 entry or part of it): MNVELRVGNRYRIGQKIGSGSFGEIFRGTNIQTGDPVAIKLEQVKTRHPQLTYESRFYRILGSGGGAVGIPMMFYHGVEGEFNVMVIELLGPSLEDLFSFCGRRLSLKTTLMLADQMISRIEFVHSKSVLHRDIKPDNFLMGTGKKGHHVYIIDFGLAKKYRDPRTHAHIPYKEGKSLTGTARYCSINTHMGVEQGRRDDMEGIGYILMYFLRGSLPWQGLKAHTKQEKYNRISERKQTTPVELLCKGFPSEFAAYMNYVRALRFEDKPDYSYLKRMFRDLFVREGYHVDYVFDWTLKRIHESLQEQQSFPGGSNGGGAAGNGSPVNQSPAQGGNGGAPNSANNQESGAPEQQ

On to `COc1cc(C=C2N=C(N)NC2=O)ccc1F` [PAC5], for which the IC50 in experiment [1] is above 10 µM; in experiment [2], above 10 µM; in experiment [3] it was above 10 µM; in [4], 2.4 µM; in experiment [5], above 10 µM; in [6] it was 6.1 µM. The IC50 in experiment [7] was 2.2 µM; in experiment [8] it was above 10 µM; in experiment [9] it was 0.64 µM; in [10] it was 5.7 µM; in experiment [11], 7.5 µM; in [12], above 10 µM. In addition, the IC50 in [13] was above 10 µM; in experiment [14], at least 10 µM; in [15] it was 1.3 µM; in experiment [16], above 10 µM.
As for `Cc1ccc(C=C2N=C(N)NC2=O)s1` [PAC10], the IC50 in experiment [1], in [2], in [3], in experiment [4], in [5] and in [6] was above 10 µM in each case. For the same compound, the IC50 in experiment [7] was above 10 µM; in experiment [8] it was above 10 µM; in experiment [9], 3.4 µM; in experiment [10], above 10 µM; in [11], above 10 µM; in experiment [12] it was above 10 µM. The IC50 was above 10 µM in experiment [13], above 10 µM in [14], 3 µM in experiment [15] and above 10 µM in [16].
With `NC1=NC(=Cc2cccc(Br)c2)C(=O)N1` [PAC3], the IC50 in experiment [1] is above 10 µM; in [2], above 10 µM; in experiment [3], above 10 µM; in experiment [4], 2.3 µM; in experiment [5], above 10 µM; in experiment [6] it was 8.2 µM. Also, the IC50 in experiment [7] is 2.2 µM; in [8] it was at least 10 µM; in experiment [9], 2.2 µM; in experiment [10], above 10 µM; in experiment [11], 6.3 µM; in experiment [12], above 10 µM. The IC50 in experiment [13] was above 10 µM; in experiment [14] it was above 10 µM; in experiment [15], 2.1 µM; in experiment [16], at least 10 µM.
On to `NC1=NC(=Cc2cc(Br)cs2)C(=O)N1` [PAC11], for which the IC50 in experiment [1] is above 10 µM; in experiment [2], 2 µM; in [3], above 10 µM; in [4], 3.2 µM; in experiment [5], above 10 µM; in experiment [6] it was 6.2 µM. The IC50 is 4.2 µM in [7]; above 10 µM in experiment [8]; 1.3 µM in [9]; 2.4 µM in experiment [10]; at least 10 µM in experiment [11]; above 10 µM in [12]. Moreover, the IC50 was above 10 µM in experiment [13], above 10 µM in experiment [14], 2.1 µM in experiment [15] and above 10 µM in experiment [16].
`CN(C)CCOc1ccc(C=C2N=C(N)NC2=O)cc1` [PAC6]: the IC50 in [1], in [2], in experiment [3], in [4], in experiment [5] and in [6] was above 10 µM in each case. The IC50 in experiment [7], in experiment [8], in experiment [9], in experiment [10], in experiment [11] and in experiment [12] was above 10 µM in each case. Besides, the IC50 in [13], in experiment [14], in [15] and in experiment [16] was above 10 µM in each case.
As to `NC1=NC(=Cc2ccccc2N2CCOCC2)C(=O)N1` [PAC7], the IC50 in experiment [1], in experiment [2], in [3], in [4], in experiment [5] and in [6] was above 10 µM in each case. Further, the IC50 in experiment [7], in experiment [8], in [9], in [10], in experiment [11] and in experiment [12] was above 10 µM in each case. Moreover, the IC50 in experiment [13], in experiment [14], in experiment [15] and in [16] was above 10 µM in each case.

(Values after PMC5666424, “Marine-Derived 2-Aminoimidazolone Alkaloids. Leucettamine B-Related Polyandrocarpamines Inhibit Mammalian and Protozoan DYRK & CLK Kinases” (Marine Drugs, 2017).)
